Data published in US8314112B2 (Novartis AG, priority 2008, dated 2012).

Each compound was assayed against T1, human ALK5 (kinase domain, ALK5 T204D) (Homo sapiens, UniProt P36897, T204D) (assay: ALK5 kinase assay ([33P] phosphate incorporation into casein)). Details: casein substrate, 1 μM unlabelled ATP.
T1 construct: The kinase domain of human ALK5 (amino acids 200-503); made in house; host or cells: insect cells (baculovirus)
T1 sequence (P36897 200-503 T204D): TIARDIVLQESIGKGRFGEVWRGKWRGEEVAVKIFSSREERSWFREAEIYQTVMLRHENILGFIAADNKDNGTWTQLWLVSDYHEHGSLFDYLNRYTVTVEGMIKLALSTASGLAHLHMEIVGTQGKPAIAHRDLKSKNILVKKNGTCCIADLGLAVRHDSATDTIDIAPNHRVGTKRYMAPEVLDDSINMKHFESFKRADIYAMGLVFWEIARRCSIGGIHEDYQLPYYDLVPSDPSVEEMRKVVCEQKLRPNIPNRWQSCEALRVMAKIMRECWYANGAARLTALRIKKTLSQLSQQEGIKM
Format: biochemical
Outline: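 His-tagged human ALK5 T204D kinase domain (aa 200-503, constitutively active, baculovirus/insect-cell expressed), 50 ng/well, preincubated 10 min with compound and dephosphorylated casein (200 μg/well) in Tris pH 7.4/MgCl2/MnCl2. Reaction started with 1 μM ATP plus [33P]ATP, 50 min at room temperature, EDTA-stopped; casein-bound 33P counted by scintillation after filter capture.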

Structure (SMILES)	IC50 [µM]
Cc1cccc(-c2cc(-c3cncc(C4=CCCC4)c3)c3cc[nH]c3n2)n1 [Example 89, 4-(5-Cyclopent-1-enyl-pyridin-3-yl)-6-(6-methyl-pyridin-2-yl)-1H-pyrrolo[2,3-b]pyridine]	0.079
Cc1cccc(-c2cc(-c3cncc(-c4cccc(CN5CCOCC5)c4)c3)c3cc[nH]c3n2)n1 [Example 90, 6-(6-Methyl-pyridin-2-yl)-4-[5-(3-morpholin-4-ylmethyl-phenyl)-pyridin-3-yl]-1H-pyrrolo[2,3-b]pyridine]	0.066
Cc1cccc(-c2cc(-c3cncc(-c4cncc(CN(C)C)c4)c3)c3cc[nH]c3n2)n1 [Example 91, Dimethyl-{5′-[6-(6-methyl-pyridin-2-yl)-1H-pyrrolo[2,3-b]pyridin-4-yl]-[3,3′]bipyridinyl-5-ylmethyl}-amine]	0.109
CNCc1cncc(-c2cncc(-c3cc(-c4cccc(C)n4)nc4[nH]ccc34)c2)c1 [Example 92, Methyl-{5′-[6-(6-methyl-pyridin-2-yl)-1H-pyrrolo[2,3-b]pyridin-4-yl]-[3,3′]bipyridinyl-5-ylmethyl}-amine]	0.103
Cc1cccc(-c2cc(-c3cncc(-c4cccc(CO)c4)c3)c3cc[nH]c3n2)n1 [Example 93, (3-{5-[6-(6-Methyl-pyridin-2-yl)-1H-pyrrolo[2,3-b]pyridin-4-yl]-pyridin-3-yl}-phenyl)-methanol]	0.024
CSc1cncc(-c2nc(-c3cccc(C)n3)nc3[nH]ccc23)c1 [Example 94, 2-(6-Methyl-pyridin-2-yl)-4-(5-methylsulfanyl-pyridin-3-yl)-7H-pyrrolo[2,3-d]pyrimidine]	0.191
Cc1cccc(-c2nc(-c3cncc(N)c3)c3cc[nH]c3n2)n1 [Example 95, 5-[2-(6-Methyl-pyridin-2-yl)-7H-pyrrolo[2,3-d]pyrimidin-4-yl]-pyridin-3-ylamine]	0.259
Cc1cncc(-c2nc(-c3cccc(C)n3)nc3[nH]ccc23)c1 [Example 96, 4-(5-Methyl-pyridin-3-yl)-2-(6-methyl-pyridin-2-yl)-7H-pyrrolo[2,3-d]pyrimidine]	0.751
Cc1cccc(-c2nc(-c3cncc(-c4ccc(CN5CC[C@@H](N(C)C)C5)cc4)c3)c3cc[nH]c3n2)n1 [Example 97, Dimethyl-[(R)-1-(4-{5-[2-(6-methyl-pyridin-2-yl)-7H-pyrrolo[2,3-d]pyrimidin-4-yl]-pyridin-3-yl}-benzyl)-pyrrolidin-3-yl]-amine]	0.008
Cc1cccc(-c2nc(-c3cncc(C#N)c3)c3cc[nH]c3n2)n1 [Example 98, 5-[2-(6-Methyl-pyridin-2-yl)-7H-pyrrolo[2,3-d]pyrimidin-4-yl]-nicotinonitrile]	0.799
Cc1cccc(-c2nc(-c3cncc(-c4cccc(C5CNCCN5)c4)c3)c3cc[nH]c3n2)n1 (stereo not drawn) [Example 99, 2-(6-Methyl-pyridin-2-yl)-4-[5-(3-piperazin-2-yl-phenyl)-pyridin-3-yl]-7H-pyrrolo[2,3-d]pyrimidine]	0.014
Cc1cccc(-c2nc(-c3cncc(-c4ccc(CN5CC[C@H](N(C)C)C5)cc4)c3)c3cc[nH]c3n2)n1 [Example 100, Dimethyl-[(S)-1-(4-{5-[2-(6-methyl-pyridin-2-yl)-7H-pyrrolo[2,3-d]pyrimidin-4-yl]-pyridin-3-yl}-benzyl)-pyrrolidin-3-yl]-amine]	0.008
Cc1cccc(-c2nc(-c3cncc(C4=CCNCC4)c3)c3cc[nH]c3n2)n1 [Example 101, 5-[2-(6-Methyl-pyridin-2-yl)-7H-pyrrolo[2,3-d]pyrimidin-4-yl]-1′,2′,3′,6′-tetrahydro-[3,4′]bipyridinyl]	0.437
Cc1cccc(-c2nc(-c3cncc(-c4cccc(C5CCCN5)c4)c3)c3cc[nH]c3n2)n1 (stereo not drawn) [Example 102, 2-(6-Methyl-pyridin-2-yl)-4-[5-(3-pyrrolidin-2-yl-phenyl)-pyridin-3-yl]-7H-pyrrolo[2,3-d]pyrimidine]	0.031
CC(=O)N1CC=C(c2cncc(-c3nc(-c4cccc(C)n4)nc4[nH]ccc34)c2)CC1 [Example 103, 1-{5-[2-(6-Methyl-pyridin-2-yl)-7H-pyrrolo[2,3-d]pyrimidin-4-yl]-3′,6′-dihydro-2′H-[3,4′]bipyridinyl-1′-yl}-ethanone]	0.133
Cc1cccc(-c2nc(-c3cncc(-c4nnn[nH]4)c3)c3cc[nH]c3n2)n1 [Example 104, 2-(6-Methyl-pyridin-2-yl)-4-[5-(1H-tetrazol-5-yl)-pyridin-3-yl]-7H-pyrrolo[2,3-d]pyrimidine]	1.03
CSc1cncc(-c2cc(-c3cccc(C)n3)nc3[nH]ccc23)c1 [Example 105, 6-(6-Methyl-pyridin-2-yl)-4-(5-methylsulfanyl-pyridin-3-yl)-1H-pyrrolo[2,3-b]pyridine]	0.115

Structure (SMILES)	IC50 [µM]
Cc1cccc(-c2cc(-c3cncc(N)c3)c3cc[nH]c3n2)n1 [Example 106, 5-[6-(6-Methyl-pyridin-2-yl)-1H-pyrrolo[2,3-b]pyridin-4-yl]-pyridin-3-ylamine]	0.066
Cc1cccc(-c2cc(-c3cncc(O)c3)c3cc[nH]c3n2)n1 [Example 107, 5-[6-(6-Methyl-pyridin-2-yl)-1H-pyrrolo[2,3-b]pyridin-4-yl]-pyridin-3-ol]	0.043
Cc1cccc(-c2cc(-c3cncc(-c4ccc(CN5CC[C@@H](N(C)C)C5)cc4)c3)c3cc[nH]c3n2)n1 [Example 108, Dimethyl-[(R)-1-(4-{5-[6-(6-methyl-pyridin-2-yl)-1H-pyrrolo[2,3-b]pyridin-4-yl]-pyridin-3-yl}-benzyl)-pyrrolidin-3-yl]-amine]	0.0046
Cc1cccc(-c2cc(-c3cncc(CO)c3)c3cc[nH]c3n2)n1 [Example 109, {5-[6-(6-Methyl-pyridin-2-yl)-1H-pyrrolo[2,3-b]pyridin-4-yl]-pyridin-3-yl}-methanol]	0.812
Cc1cccc(-c2cc(-c3cncc(-c4ccc(CN5CC[C@H](N(C)C)C5)cc4)c3)c3cc[nH]c3n2)n1 [Example 110, Dimethyl-[(S)-1-(4-{5-[6-(6-methyl-pyridin-2-yl)-1H-pyrrolo[2,3-b]pyridin-4-yl]-pyridin-3-yl}-benzyl)-pyrrolidin-3-yl]-amine]	0.02
Cc1cccc(-c2cc(-c3cncc(C4=CCNCC4)c3)c3cc[nH]c3n2)n1 [Example 111, 5-[6-(6-Methyl-pyridin-2-yl)-1H-pyrrolo[2,3-b]pyridin-4-yl]-1′,2′,3′,6′-tetrahydro-[3,4′]bipyridinyl]	0.042
Cc1cccc(-c2cc(-c3cncc(-c4ccc(C(C)N)cc4)c3)c3cc[nH]c3n2)n1 (stereo not drawn) [Example 112, 1-(4-{5-[6-(6-Methyl-pyridin-2-yl)-1H-pyrrolo[2,3-b]pyridin-4-yl]-pyridin-3-yl}-phenyl)-ethylamine]	0.007
Cc1cccc(-c2cc(-c3cncc(-c4cccc(C(C)(C)N)c4)c3)c3cc[nH]c3n2)n1 [Example 113, 1-Methyl-1-(3-{5-[6-(6-methyl-pyridin-2-yl)-1H-pyrrolo[2,3-b]pyridin-4-yl]-pyridin-3-yl}-phenyl)-ethylamine]	0.027
Cc1cccc(-c2cc(-c3cncc(-c4ccc(C(C)(C)N)cc4)c3)c3cc[nH]c3n2)n1 [Example 114, 1-Methyl-1-(4-{5-[6-(6-methyl-pyridin-2-yl)-1H-pyrrolo[2,3-b]pyridin-4-yl]-pyridin-3-yl}-phenyl)-ethylamine]	0.0046
Cc1cccc(-c2nc(-c3cncc(-c4ccc5c(c4)CCNC5)c3)c3cc[nH]c3n2)n1 [Example 115, 6-{5-[2-(6-Methyl-pyridin-2-yl)-7H-pyrrolo[2,3-d]pyrimidin-4-yl]-pyridin-3-yl}-1,2,3,4-tetrahydro-isoquinoline]	1.15
Cc1cccc(-c2nc(-c3cncc(C4=CCN(C)CC4)c3)c3cc[nH]c3n2)n1 [Example 116, 1′-Methyl-5-[2-(6-methyl-pyridin-2-yl)-7H-pyrrolo[2,3-d]pyrimidin-4-yl]-1′,2′,3′,6′-tetrahydro-[3,4′]bipyridinyl]	0.532
Cc1cccc(-c2nc(-c3cncc(-c4cnn(C)c4)c3)c3cc[nH]c3n2)n1 [Example 117, 4-[5-(1-Methyl-1H-pyrazol-4-yl)-pyridin-3-yl]-2-(6-methyl-pyridin-2-yl)-7H-pyrrolo[2,3-d]pyrimidine]	0.015
Cc1cccc(-c2nc(-c3cncc(-c4ccc5c(c4)CNCC5)c3)c3cc[nH]c3n2)n1 [Example 118, 7-{5-[2-(6-Methyl-pyridin-2-yl)-7H-pyrrolo[2,3-d]pyrimidin-4-yl]-pyridin-3-yl}-1,2,3,4-tetrahydro-isoquinoline]	0.0039
C#Cc1cncc(-c2nc(-c3cccc(C)n3)nc3[nH]ccc23)c1 [Example 119, 4-(5-Ethynyl-pyridin-3-yl)-2-(6-methyl-pyridin-2-yl)-7H-pyrrolo[2,3-d]pyrimidine]	0.292
Cc1cccc(-c2cc(-c3cncc(-c4cccc(C5CCCN5)c4)c3)c3cc[nH]c3n2)n1 (stereo not drawn) [Example 120, 6-(6-Methyl-pyridin-2-yl)-4-[5-(3-pyrrolidin-2-yl-phenyl)-pyridin-3-yl]-1H-pyrrolo[2,3-b]pyridine]	0.0036
CC(=O)N1CC=C(c2cncc(-c3cc(-c4cccc(C)n4)nc4[nH]ccc34)c2)CC1 [Example 121, 1-{5-[6-(6-Methyl-pyridin-2-yl)-1H-pyrrolo[2,3-b]pyridin-4-yl]-3′,6′-dihydro-2′H-[3,4′]bipyridinyl-1′-yl}-ethanone]	0.065
